Measured values: patent US9198420B2, “Rodenticidal norbormide analogues” (priority 2012, dated 2015)
Like-named read-outs stand apart in the source and are kept apart here. Marks after values point to notes of the source that are not given here.

Columns and labels:
[1] = system: rat caudal artery; assay: Rat caudal artery ring contractile force (vasoconstrictory activity); design: species or system rat (male Wistar)
Procedure, shortened: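 Endothelium-denuded caudal artery rings from male Wistar rats were held at 2 g resting tension in Tyrode solution (37° C, pH 7.35, 95% O2/CO2) and isometric force was recorded. Compounds were tested at 50 μM, with contraction expressed as percent of the 90 mM KCl response.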

[2] = system: Sprague Dawley rats; assay: In vivo lethality, intravenous injection via the tail; design: species or system rat (Sprague Dawley); conditions: 20 mg/Kg, rat
Procedure: (§1) Sprague Dawley rats (150-200 g) were used to appraise the rodenticidal activity of the compounds put forward for in vivo evaluation. Briefly, prior to administration the compounds were dissolved in 0.2 M hydrochloric acid (5% DMSO overall), to the desired dose, and without delay either injected intravenously, via the tail, or orally gavaged. All treated animals were housed in a quiet room and monitored every minute (i.v) or every 15 min (oral) to verify early signs of toxicity.

[3] = system: Sprague Dawley rats; assay: In vivo lethality, oral gavage; design: species or system rat (Sprague Dawley); conditions: rat; for Time to Death (min) / Onset of Symptoms: mean time; for Onset of Symptoms: visual signs of distress consistent with NRB-like symptoms
Procedure: as §1

[4] = system: Sprague Dawley rats; assay: Palatability (no-choice) trial, peanut butter bait; assay type: in vivo, rat (Sprague Dawley); conditions: po, 1% w/w toxicant in peanut butter bait, n = 6, 3 male and 3 female rats
Description: In the palatability trials, Sprague Dawley rats (ca. 250 g) were presented with 1% w/w compound (n=6) or 0.5% w/w compound (n=5) in a peanut butter bait, following 3 days ‘pre-baiting’ with a peanut butter formulation free of toxicant.

[5] = Simulated gastric fluid (SGF) hydrolytic stability assay; assay type: physicochemical; conditions: simulated gastric fluid without pepsin, pH 1.2, 37° C., 1 h, n = 3
Procedure: All in vivo candidates were subjected to a 1 h hydrolytic stability appraisal in the presence of SGF, without pepsin (United States Pharmacopoeia 24) [200 μL total volume, sodium chloride solution (0.03 M) acidified to pH 1.2 with concentrated hydrochloric acid, at a final compound concentration of 200 μM, 2.5% DMSO overall, 37° C., n=3], to investigate any potential chemical instabilities that may occur in the acidic environment of the stomach prior to uptake. Analysis was by RP-LCMS at an injection volume of 5 μL.

[6] = Rat serum assay (release of NRB or NRB analogue); assay type: in vitro ADME; conditions: 80% rat serum, 37° C., 3 h, n = 3
Procedure: The hydrolytic stability of compounds of the invention in rat blood was evaluated using in vitro rat serum obtained from Sigma-Aldrich and stored at −78° C. Similar assay conditions to those reported by Li Di and co-workers (Int. J. Pharm. 2005, 297, 110-119) were followed [200 μL total volume, 80% rat serum (diluting with phosphate buffer (0.1 M, pH 7.4)), at a final compound concentration of 200 μM, 2.5% DMSO overall, 37° C., 3 h, n=3] using an Eppendorf Thermomixer Compact. Reactions were quenched by transferring 150 μL of the incubation mixture to 450 μL of ice-cold acetonitrile, affording a final compound/NRB or NRB analogue concentration of 50 μM. Samples were centrifuged at 14,500×g for 15 min using an Eppendorf Mini Spin Plus centrifuge, at ambient temperature. 400 μL of the supernatant was removed and transferred to clean tubes. Analysis was by RP-LCMS at an injection volume of 20 μL. Each compound and corresponding NRB or NRB analogue were subjected to external calibration curves at 50 μM, 100 μM and 200 μM to allow conversion of absorbance unit area into nmol, from which the percentage of NRB or NRB analogue released from each compound was calculated.

[7] = Table 1, read-out: Vasoconstriction: maximum contractile effect as a % of 90 mM KCl contraction
[8] = Table 11, read-out: No of deaths (converted)
[9] = Table 7, compounds of formula (V)
[10] = Table 5, compounds of formula (III)
[11] = Table 12, read-out: No of deaths (converted)

| Compound | Emax [1, 7] | Vasoconstriction: maximum contractile effect as a % of 90 mM KCl contraction ([1]; Table 4, pre-cleavage, n = 3) | Time to Death (min) ([3]; 20 mg/Kg) | Onset of Symptoms ([3]; 20 mg/Kg) | In vivo lethality (oral) ([3]; 40 mg/Kg, n = 2) | Vasoconstriction: maximum contractile effect as a % of 90 mM KCl contraction ([1]; n = 3, Table 8) | In vivo lethality (i.v.) ([2]; n = 3, Table 8) | other results |
| --- | --- | --- | --- | --- | --- | --- | --- | --- |
| CCCCCCCC(=O)OCN1C(=O)C2C3C=C(C(O)(c4ccccc4)c4ccccn4)C(C3=C(c3ccccc3)c3ccccn3)C2C1=O (stereo not drawn) [Compound 10, 5-(α-Hydroxy-α-2-pyridylbenzyl)-N-octanoyloxymethyl-7-(α-2-pyridylbenzylidene)-5-norbornene-2,3-dicarboximide] | 0% | 0% | not lethal | 15 min | yes^h | – | – | In vivo lethality (i.v.) ([2]; n = 2): yes^f; mortality at 1 % [4, 8]: 100% |
| O=C(Cc1ccccc1)OCN1C(=O)C2C3C=C(C(O)(c4ccccc4)c4ccccn4)C(C3=C(c3ccccc3)c3ccccn3)C2C1=O (stereo not drawn) [Compound 16, 5-(α-Hydroxy-α-2-pyridylbenzyl)-N-phenylacetyloxymethyl-7-(α-2-pyridylbenzylidene)-5-norbornene-2,3-dicarboximide] | 15% | 15% | 90^d min | 15 min | yes^h,i | – | – | In vivo lethality (i.v.) ([2]; n = 2): yes^f; In vivo lethality (oral) ([3]; 20 mg/Kg, n = 2): yes^h,i; mortality at 1 % [4, 8]: 83.3% |
| O=C1C2C3C=C(C(O)(c4ccccc4)c4ccccn4)C(C3=C(c3ccccc3)c3ccccn3)C2C(=O)N1CCO (stereo not drawn) [Compound 102, N-2′-Hydroxyethyl-5-(α-hydroxy-α-2-pyridylbenzyl)-7-(α-2-pyridylbenzylidene)-5-norbornene-2,3-dicarboximide] | – | – | – | – | – | ≧132% | yes^b | Vasoconstriction: maximum contractile effect as a % of 90 mM KCl contraction [1, 9]: ≧132%; In vivo lethality (oral) ([3]; 20 mg/Kg, n = 3, Table 8): yes^c,d; In vivo lethality (oral) ([3]; 40 mg/Kg, n = 3, Table 8): yes^c,d |
| O=C1C2C3C=C(C(O)(c4ccccc4)c4ccccn4)C(C3=C(c3ccccc3)c3ccccn3)C2C(=O)N1CCCO (stereo not drawn) [Compound 104, N-3′-Hydroxypropyl-5-(α-hydroxy-α-2-pyridylbenzyl)-7-(α-2-pyridylbenzylidene)-5-norbornene-2,3-dicarboximide] | – | – | – | – | – | ≧132% | yes^b | Vasoconstriction: maximum contractile effect as a % of 90 mM KCl contraction [1, 9]: ≧132%; In vivo lethality (oral) ([3]; 40 mg/Kg, n = 3, Table 8): yes^c |
| NCCN1C(=O)C2C3C=C(C(O)(c4ccccc4)c4ccccn4)C(C3=C(c3ccccc3)c3ccccn3)C2C1=O (stereo not drawn) [Compound 106, N-2′-Aminoethyl-5-(α-hydroxy-α-2-pyridylbenzyl)-7-(α-2-pyridylbenzylidene)-5-norbornene-2,3-dicarboximide] | – | – | – | – | – | ≧132% | yes^b | Vasoconstriction: maximum contractile effect as a % of 90 mM KCl contraction [1, 9]: ≧132% |
| O=C(O)CN1C(=O)C2C3C=C(C(O)(c4ccccc4)c4ccccn4)C(C3=C(c3ccccc3)c3ccccn3)C2C1=O (stereo not drawn) [Compound 107, N-Carboxymethyl-5-(α-hydroxy-α-2-pyridylbenzyl)-7-(α-2-pyridylbenzylidene)-5-norbornene-2,3-dicarboximide] | – | – | – | – | – | ≧132% | yes^b | Emax ([1]; Table 7, compounds of formula (V), read-out: Vasoconstriction: maximum contractile effect as a % of 90 mM KCl contraction): ≥ 132% |
| O=C(C=Cc1ccc(Cl)cc1)OCCN1C(=O)C2C3C=C(C(O)(c4ccccc4)c4ccccn4)C(C3=C(c3ccccc3)c3ccccn3)C2C1=O (stereo not drawn) [Compound 129, N-[2′-(4″-Chlorocinnamoyloxy)ethyl]-5-(α-hydroxy-α-2-pyridylbenzyl)-7-(α-2-pyridylbenzylidene)-5-norbornene-2,3-dicarboximide] | 0% | 0% | – | – | yes^h,i | – | – | In vivo lethality (i.v.) ([2]; n = 2): yes^f; In vivo lethality (oral) ([3]; 20 mg/Kg, n = 2): yes^h,i |
| O=C(CCCCCCC(=O)OCCN1C(=O)C2C3C=C(C(O)(c4ccccc4)c4ccccn4)C(C3=C(c3ccccc3)c3ccccn3)C2C1=O)OCCN1C(=O)C2C3C=C(C(O)(c4ccccc4)c4ccccn4)C(C3=C(c3ccccc3)c3ccccn3)C2C1=O (stereo not drawn) [Compound 140, 5-(α-Hydroxy-α-2-pyridylbenzyl)-7-(α-2-pyridylbenzylidene)-N-2′-suberoyloxyethyl-5-norbornene-2,3-dicarboximide dimer] | – | – | – | – | – | – | – | Vasoconstriction: maximum contractile effect as a % of 90 mM KCl contraction [1, 10]: 0%; Vasoconstriction: maximum contractile effect as a % of 90 mM KCl contraction ([1]; n = 3, pre-cleavage, Table 6): 0%; % NRB released, Hydrolytic Stability [5]: 0%; % NRB released, Rat Serum [6]: 9.9 ± 1.3% |
| O=C(CCCCCCCCCCC(=O)OCCN1C(=O)C2C3C=C(C(O)(c4ccccc4)c4ccccn4)C(C3=C(c3ccccc3)c3ccccn3)C2C1=O)OCCN1C(=O)C2C3C=C(C(O)(c4ccccc4)c4ccccn4)C(C3=C(c3ccccc3)c3ccccn3)C2C1=O (stereo not drawn) [Compound 142, N-2′-Dodecanedioyloxyethyl-5-(α-hydroxy-α-2-pyridylbenzyl)-7-(α-2-pyridylbenzylidene)-5-norbornene-2,3-dicarboximide dimer] | – | – | – | – | – | – | – | Vasoconstriction: maximum contractile effect as a % of 90 mM KCl contraction [1, 10]: 0%; Vasoconstriction: maximum contractile effect as a % of 90 mM KCl contraction ([1]; n = 3, pre-cleavage, Table 6): 0%; % NRB released, Hydrolytic Stability [5]: 0%; % NRB released, Rat Serum [6]: <5% |
| O=C(OCCN1C(=O)C2C3C=C(C(O)(c4ccccc4)c4ccccn4)C(C3=C(c3ccccc3)c3ccccn3)C2C1=O)c1ccc(C(=O)OCCN2C(=O)C3C4C=C(C(O)(c5ccccc5)c5ccccn5)C(C4=C(c4ccccc4)c4ccccn4)C3C2=O)cc1 (stereo not drawn) [Compound 143, 5-(α-Hydroxy-α-2-pyridylbenzyl)-7-(α-2-pyridylbenzylidene)-N-2′-terephthaloyloxyethyl-5-norbornene-2,3-dicarboximide dimer] | – | – | – | – | – | – | – | Vasoconstriction: maximum contractile effect as a % of 90 mM KCl contraction [1, 10]: 0%; Vasoconstriction: maximum contractile effect as a % of 90 mM KCl contraction ([1]; n = 3, pre-cleavage, Table 6): 0%; % NRB released, Hydrolytic Stability [5]: 0%; % NRB released, Rat Serum [6]: 27.5 ± 1.4% |
| NCc1ccc(C(=O)OCCN2C(=O)C3C4C=C(C(O)(c5ccccc5)c5ccccn5)C(C4=C(c4ccccc4)c4ccccn4)C3C2=O)cc1.O=C(O)C(F)(F)F (stereo not drawn) [Compound 342, N-[2′-(4-Aminomethylbenzoyloxy)ethyl]-5-(α-hydroxy-α-2-pyridylbenzyl)-7-(α-2-pyridylbenzylidene)-5-norbornene-2,3-dicarboximide trifluoroacetate] | 136% | 136% | – | – | yes^h | – | – | mortality at 1 % [4, 8]: 66.7% |
| CCOc1ccc(C=CC(=O)NCCN2C(=O)C3C4C=C(C(O)(c5ccccc5)c5ccccn5)C(C4=C(c4ccccc4)c4ccccn4)C3C2=O)cc1 (stereo not drawn) [Compound 345, N-[2′-(4″-Ethoxycinnamamido)ethyl]-5-(α-hydroxy-α-2-pyridylbenzyl)-7-(α-2-pyridylbenzylidene)-5-norbornene-2,3-dicarboximide] | – | 0% | 65^d min | 15 min | yes^h,i | – | – | Emax ([1]; Table 2, read-out: Vasoconstriction: maximum contractile effect as a % of 90 mM KCl contraction): 0%; In vivo lethality (oral) ([3]; 20 mg/Kg, n = 2): yes^h,i; mortality at 1 % [4, 11]: 33.3% |
| CC(C)c1ccc(C=CC(=O)OCCN2C(=O)C3C4C=C(C(O)(c5ccccc5)c5ccccn5)C(C4=C(c4ccccc4)c4ccccn4)C3C2=O)cc1 (stereo not drawn) [Compound 347, 5-(α-Hydroxy-α-2-pyridylbenzyl)-N-[2′-(4″-isopropylcinnamoyloxy)ethyl]-7-(α-2-pyridylbenzylidene)-5-norbornene-2,3-dicarboximide] | 0% | 0% | not lethal | 20 min | yes^h | – | – | mortality at 1 % [4, 11]: 50% |
